In patent US9221815B2, “Solid state form of vemurafenib choline salt” (ratiopharm GmbH, priority 2012, dated 2015):
Like-named read-outs stand apart in the source and are kept apart here.

Experiments:
[1] = amorphous form; cited from earlier work
[2] = in accordance with WO 2010/114928 and WO 2010/129570; cited from earlier work

## CCCS(=O)(=O)Nc1ccc(F)c(C(=O)c2c[nH]c3ncc(-c4ccc(Cl)cc4)cc23)c1F [Amorphous Vemurafenib]
[1]
  Stability (in words): not stable

## CCCS(=O)(=O)Nc1ccc(F)c(C(=O)c2c[nH]c3ncc(-c4ccc(Cl)cc4)cc23)c1F.C[N+](C)(C)CCO [Vemurafenib Choline crystalline C1]
45° C. and 75% relative humidity (RH)
  Period stable upon storage: at least 2 weeks
Ambient conditions (room temperature and atmospheric humidity)
  Period stable upon storage: at least 7 months

## CCCS(=O)(=O)Nc1ccc(F)c(C(=O)c2c[nH]c3ncc(-c4ccc(Cl)cc4)cc23)c1F [Vemurafenib, propane-1-sulfonic acid {3-[5-(4-chlorophenyl)-1H-pyrrolo[2,3-b]pyridine-3-carbonyl]-2,4-difluoro-phenyl}-amide]
[2]
  Solubility (in words): extremely low solubility
